Results reported in ChEMBL document CHEMBL1201862, “PubChem BioAssay data set” (2004).
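Assay format: 96-well plates, 48-hour exposure. GI50: concentration for 50% inhibition of growth.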 The source made the active and inactive calls. No stated cut-off is given here; in the data, active = GI50 up to about 1.1 µM and inactive = higher.

Experiments:
Assay in all cases: inhibition of tumour cell growth, NCI panel, 48 h
[1] = test system: NCI-H226
[2] = test system: SNB-75
[3] = test system: PC-3
[4] = test system: T47D
[5] = test system: TK-10
[6] = test system: K562
[7] = test system: EKVX
[8] = test system: KM12
[9] = test system: SK-MEL-28
[10] = test system: BT-549
[11] = test system: 786-0
[12] = test system: MOLT-4
[13] = test system: UACC-62
[14] = test system: SR
[15] = test system: HCC 2998
[16] = test system: MDA-N
[17] = test system: MCF7
[18] = test system: LOX IMVI
[19] = test system: NCI/ADR-RES
[20] = test system: COLO 205
[21] = test system: UACC-257
[22] = test system: OVCAR-5
[23] = test system: OVCAR-3
[24] = test system: HCT-116
[25] = test system: OVCAR-4
[26] = test system: NCI-H460
[27] = test system: A549
[28] = test system: UO-31
[29] = test system: SF-268
[30] = test system: M14
[31] = test system: SN12C
[32] = test system: CAKI-1
[33] = test system: MDA-MB-231
[34] = test system: SF-295
[35] = test system: DU-145
[36] = test system: Hs-578T
[37] = test system: HL-60
[38] = test system: SK-MEL-2
[39] = test system: HOP-62
[40] = test system: HT-29
[41] = test system: U-251
[42] = test system: CCRF-CEM
[43] = test system: SF-539
[44] = test system: SNB-19
[45] = test system: RXF 393
[46] = test system: NCI-H23
[47] = test system: SW-620
[48] = test system: MDA-MB-435
[49] = test system: ACHN
[50] = test system: NCI-H522
[51] = test system: IGROV-1
[52] = test system: HCT-15
[53] = test system: HOP-92
[54] = test system: A498
[55] = test system: Malme-3M
[56] = test system: RPMI-8226
[57] = test system: OVCAR-8
[58] = test system: SK-OV-3
[59] = test system: SK-MEL-5
[60] = test system: LXFL 529
[61] = test system: DLD-1
[62] = test system: SNB-78
[63] = test system: DMS-114

SMILES: CC(=O)Nc1ccc2c3c(cc(O)c2c1)N(C(=O)CCCCC(=O)Nc1ccc2c4c(cc(O)c2c1)N(C(=O)OC(C)(C)C)CC4CCl)CC3CCl (centres undefined)
- GI50 [1]: 2.13 µM (inactive)
- GI50 [2]: 1.82 µM (inactive)
- GI50 [3]: 3.25 µM (inactive)
- GI50 [4]: 0.82 µM (active)
- GI50 [5]: 10.4 µM (inactive)
- GI50 [6]: 2.62 µM (inactive)
- GI50 [7]: 12.8 µM (inactive)
- GI50 [8]: 2.79 µM (inactive)
- GI50 [9]: 3.3 µM (inactive)
- GI50 [10]: 1.77 µM (inactive)
- GI50 [11]: 2.76 µM (inactive)
- GI50 [12]: 0.302 µM (active)
- GI50 [13]: 1.54 µM (inactive)
- GI50 [14]: 0.137 µM (active)
- GI50 [15]: 1.66 µM (inactive)
- GI50 [16]: 1.77 µM (inactive)
- GI50 [17]: 0.373 µM (active)
- GI50 [18]: 2.19 µM (inactive)
- GI50 [19]: 21.7 µM (inactive)
- GI50 [20]: 1.82 µM (inactive)
- GI50 [21]: 2.26 µM (inactive)
- GI50 [22]: 3.29 µM (inactive)
- GI50 [23]: 2.26 µM (inactive)
- GI50 [24]: 2.22 µM (inactive)
- GI50 [25]: 2.52 µM (inactive)
- GI50 [26]: 1.83 µM (inactive)
- GI50 [27]: 7.62 µM (inactive)
- GI50 [28]: 24.3 µM (inactive)
- GI50 [29]: 0.804 µM (active)
- GI50 [30]: 3.27 µM (inactive)
- GI50 [31]: 2.38 µM (inactive)
- GI50 [32]: 17.4 µM (inactive)
- GI50 [33]: 3.8 µM (inactive)
- GI50 [34]: 4.66 µM (inactive)
- GI50 [35]: 0.826 µM (active)
- GI50 [36]: 3.55 µM (inactive)
- GI50 [37]: 0.42 µM (active)
- GI50 [38]: 1.75 µM (inactive)
- GI50 [39]: 3.05 µM (inactive)
- GI50 [40]: 2.82 µM (inactive)
- GI50 [41]: 1.53 µM (inactive)
- GI50 [42]: 0.193 µM (active)
- GI50 [43]: 2.25 µM (inactive)
- GI50 [44]: 2.09 µM (inactive)
- GI50 [45]: 1.53 µM (inactive)
- GI50 [46]: 1.05 µM (active)
- GI50 [47]: 2.82 µM (inactive)
- GI50 [48]: 1.78 µM (inactive)
- GI50 [49]: 3.2 µM (inactive)
- GI50 [50]: 0.74 µM (active)
- GI50 [51]: 1.92 µM (inactive)
- GI50 [52]: 16.7 µM
- GI50 [53]: 2.7 µM (inactive)
- GI50 [54]: 1.94 µM (inactive)
- GI50 [55]: 1.39 µM (inactive)
- GI50 [56]: 3.13 µM (inactive)
- GI50 [57]: 3.08 µM (inactive)
- GI50 [58]: 4.4 µM (inactive)
- GI50 [59]: 1.54 µM (inactive)

SMILES: COc1cc(/C=N/N=C(\N)NO)ccc1O
- GI50 [1]: 14.1 µM (inactive)
- GI50 [6]: 33.3 µM (inactive)
- GI50 [7]: 71.9 µM (inactive)
- GI50 [8]: 77.1 µM (inactive)
- GI50 [9]: 26 µM (inactive)
- GI50 [11]: > 10 µM (inactive)
- GI50 [12]: 65.9 µM (inactive)
- GI50 [13]: 30.4 µM (inactive)
- GI50 [18]: 30.5 µM (inactive)
- GI50 [20]: > 100 µM (inactive)
- GI50 [21]: > 100 µM (inactive)
- GI50 [60]: 28.6 µM (inactive)
- GI50 [22]: 18.1 µM (inactive)
- GI50 [61]: > 100 µM (inactive)
- GI50 [62]: > 100 µM (inactive)
- GI50 [24]: 69.8 µM (inactive)
- GI50 [25]: > 100 µM (inactive)
- GI50 [26]: 38.8 µM (inactive)
- GI50 [27]: 47.3 µM (inactive)
- GI50 [28]: 41.4 µM (inactive)
- GI50 [29]: 56 µM (inactive)
- GI50 [31]: > 100 µM (inactive)
- GI50 [32]: 28.6 µM (inactive)
- GI50 [34]: 26.1 µM (inactive)
- GI50 [38]: 69.3 µM (inactive)
- GI50 [40]: 67.8 µM (inactive)
- GI50 [63]: 39.9 µM (inactive)
- GI50 [41]: 91.2 µM (inactive)
- GI50 [42]: > 100 µM (inactive)
- GI50 [43]: 46.3 µM (inactive)
- GI50 [44]: > 100 µM (inactive)
- GI50 [45]: 31.5 µM (inactive)
- GI50 [46]: 57.1 µM (inactive)
- GI50 [47]: 68.2 µM (inactive)
- GI50 [49]: 44.1 µM (inactive)
- GI50 [50]: 46.3 µM (inactive)
- GI50 [51]: > 100 µM (inactive)
- GI50 [52]: 50 µM
- GI50 [53]: > 100 µM (inactive)
- GI50 [54]: 44.9 µM (inactive)
- GI50 [55]: 75.9 µM (inactive)
- GI50 [56]: > 100 µM (inactive)
- GI50 [57]: 63.7 µM (inactive)
- GI50 [58]: 78.7 µM (inactive)
- GI50 [59]: 53 µM (inactive)
